Laboratory results: the NIST ThermoML archive (doi:10.1021/acs.jced.7b01006)

Test: xn = mol fraction of the nth substance listed
Conditions: 100 kPa, Liquid; for electrical conductivity: Alternating current cell with electrodes; for viscosity: Falling or rolling sphere viscometry; for mass density: Vibrating tube method

CCC[n+]1ccn(C)c1C.N#C[S-] [1,2-dimethyl-3-propylimidazolium thiocyanate] + CC#N
Conditions | electrical conductivity [S/m] | mass density [kg/m3] | viscosity [mPa·s]
308.15 K, x1 = 0.1002 | 6.49 | 867.37 | 1.998
308.15 K, x1 = 0.2002 | 5.83 | 934.26 | 4.904
308.15 K, x1 = 0.2998 | 5.16 | 981.65 | 9.381
308.15 K, x1 = 0.4001 | 3.77 | 1016.47 | 15.33
308.15 K, x1 = 0.4997 | 2.35 | 1040.37 | 22.87
308.15 K, x1 = 0.5998 | 1.98 | 1055.91 | 32.68
308.15 K, x1 = 0.7002 | 1.59 | 1066.65 | 43.59
308.15 K, x1 = 0.7999 | 1.18 | 1075.33 | 55.98
308.15 K, x1 = 0.8999 | 0.874 | 1082.59 | 69.61
308.15 K, x1 = 1 | 0.733 | 1087.57 | 83.42
313.15 K, x1 = 0.1002 | 6.81 | 862.96 | 1.461
313.15 K, x1 = 0.2002 | 6.22 | 930.69 | 3.715
313.15 K, x1 = 0.2998 | 5.62 | 978.11 | 7.289
313.15 K, x1 = 0.4001 | 4.18 | 1013.36 | 11.81
313.15 K, x1 = 0.4997 | 2.71 | 1037.38 | 17.46
313.15 K, x1 = 0.5998 | 2.31 | 1053.06 | 24.53
313.15 K, x1 = 0.7002 | 1.88 | 1063.86 | 32.94
313.15 K, x1 = 0.7999 | 1.42 | 1072.65 | 42.28
313.15 K, x1 = 0.8999 | 1.06 | 1079.86 | 53.18
313.15 K, x1 = 1 | 0.905 | 1084.55 | 64.78
318.15 K, x1 = 0.1002 | 7.13 | 858.59 | 1.077
318.15 K, x1 = 0.2002 | 6.61 | 927.1 | 2.907
318.15 K, x1 = 0.2998 | 6.1 | 974.43 | 5.635
318.15 K, x1 = 0.4001 | 4.61 | 1010.2 | 9.215
318.15 K, x1 = 0.4997 | 3.11 | 1034.36 | 13.52
318.15 K, x1 = 0.5998 | 2.67 | 1050.24 | 18.99
318.15 K, x1 = 0.7002 | 2.22 | 1060.96 | 25.5
318.15 K, x1 = 0.7999 | 1.69 | 1069.97 | 32.82
318.15 K, x1 = 0.8999 | 1.26 | 1077.03 | 41.2
318.15 K, x1 = 1 | 1.1 | 1081.54 | 50.96
323.15 K, x1 = 0.1002 | 7.45 | 854.24 | 0.775
323.15 K, x1 = 0.2002 | 7.01 | 923.56 | 2.285
323.15 K, x1 = 0.2998 | 6.58 | 970.89 | 4.456
323.15 K, x1 = 0.4001 | 5.05 | 1006.99 | 7.216
323.15 K, x1 = 0.4997 | 3.52 | 1031.23 | 10.53
323.15 K, x1 = 0.5998 | 3.08 | 1047.39 | 14.68
323.15 K, x1 = 0.7002 | 2.6 | 1060 | 19.99
323.15 K, x1 = 0.7999 | 2 | 1070 | 25.88
323.15 K, x1 = 0.8999 | 1.5 | 1074.33 | 33.37
323.15 K, x1 = 1 | 1.33 | 1078.54 | 41.55
